Broadly, the Ki is the equilibrium dissociation constant of an inhibitor or competing ligand from its target.

The values below come from publication PMC10502087, “Fatty acid binding proteins are novel modulators of synaptic epoxyeicosatrienoic acid signaling in the brain” (Scientific Reports, 2023).

One assay has as its target FABP3 (Homo sapiens, UniProt P05413). The assay is described as follows: Fluorescent probe (DAUDA) displacement from purified FABP3. It is filed as binding. An excerpt:
(§1) We first examined the binding of EETs (Fig. 1) to purified FABP3, FABP5, and FABP7 via fluorescent probe displacement assays as previously described[30],[31]. 5,6-EET, 8,9-EET, 11,12-EET, and 14,15-EET bound to all three FABPs with distinct selectivity. […] Similarly, 11,12-EET emerged as the preferred ligand for FABP5 followed by 8,9-EET, 5,6-EET, and 14,15-EET (Fig. 2A, Table 1). For FABP7, 11,12-EET bound with highest affinity while interactions of the remaining EETs were considerably weaker.
(§2) Affinities of each ligand were determined via fluorescent probe displacement from purified FABPs as previously described[30],[31],[47]. Ligands were incubated in assay buffer (30 mM Tris, 100 mM NaCl, pH 7.5) containing 3 μM purified FABPs, 500 nM DAUDA (for FABP3 and FABP5) or ANS (for FABP7). AA (10 μM) was included to account for maximal probe displacement. The fluorescence signal was quantified on a F5 Filtermax Multi-Mode Microplate Reader (Molecular Devices) with the excitation and emission wavelengths set at 360/535 nm for DAUDA and 360/465 nm for ANS. After background subtraction, normalized fluorescence values were fit to a one-site binding model using GraphPad Prism (v 9.5) and Ki values were determined using the following equation: Ki = IC50/(1 + ([Probe]/Kd).

Assay [1] has as its target T1, FABP5 (Homo sapiens, UniProt Q01469). Description: Fluorescent probe (DAUDA) displacement from purified FABP5. It is filed as binding. The procedure: We first examined the binding of EETs (Fig. 1) to purified FABP3, FABP5, and FABP7 via fluorescent probe displacement assays as previously described[30],[31].
Affinities of each ligand were determined via fluorescent probe displacement from purified FABPs as previously described[30],[31],[47]. Ligands were incubated in assay buffer (30 mM Tris, 100 mM NaCl, pH 7.5) containing 3 μM purified FABPs, 500 nM DAUDA (for FABP3 and FABP5) or ANS (for FABP7). AA (10 μM) was included to account for maximal probe displacement.

The target of assay [2] is T2, FABP7 (Homo sapiens, UniProt O15540). The assay is described as follows: Fluorescent probe (ANS) displacement from purified FABP7. It counts as binding.
T2 sequence (O15540 whole entry): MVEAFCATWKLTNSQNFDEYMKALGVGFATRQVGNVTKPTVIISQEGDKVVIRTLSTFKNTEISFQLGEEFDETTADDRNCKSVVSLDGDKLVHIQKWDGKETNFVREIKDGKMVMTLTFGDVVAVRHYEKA
From the text: as §1, §2

In assay [3] the target is T1, FABP5. Further details: method as in PMID 8798739, PMID 8608126. The conditions noted are these: cited from earlier work.
Assay [4] addresses T2, FABP7. Further details: method as in PMID 8798739, PMID 8608126. The note with it: cited from earlier work.
Assay [5] deals with CA1 pyramidal neuron glutamate synapses. The assay is described as follows: Ex vivo whole-cell recordings of evoked EPSCs in hippocampal slices. It is filed as cell-based, C57Bl/6 mice. As to the method:
Mice were deeply anesthetized with isoflurane and decapitated. Coronal brain slices (350 μm thick) containing the hippocampus were cut using a vibratome Leica VT 1200 (Leica, CA) in a modified ice-cold […] artificial cerebrospinal fluid (ACSF) composed in mM: 110 mM choline-Cl, 2.5 mM KCl, 0.5 mM CaCl2, 7 mM MgSO4, 1.25 mM NaH2PO4, 26.2 mM NaHCO3, 11.6 mM sodium L-ascorbate, 3.1 mM sodium pyruvate, and 25 mM glucose, and equilibrated with 95% O2 and 5% CO2. Hippocampal slices were first transferred to a chamber with the same cutting solution at 35 °C for 15 min and then to a standard ACSF in mM: 119 mM NaCl, 2.5 mM CaCl2, 1.3 mM MgSO4, 1 mM NaH2PO4, 26.2 mM NaHCO3, and 11 mM glucose continuously bubbled with a mixture of 95% O2 and 5% CO2 for additional 45 min at 35 °C. Slices were allowed to recover at room temperature (≥ 1 h). After recovery, individual slice was transferred to a recording chamber, continuously perfused with standard ACSF containing 0.01% DMSO saturated with 95% O2 and 5% CO2, and warmed at 30 °C.
Hippocampal CA1 pyramidal neurons were visualized using an upright microscope (BX 51 WI; Olympus, Tokyo, Japan) and somatic whole-cell recordings were obtained from pyramidal neurons using glass pipette electrodes with 3–5 MΩ resistance when filled with an internal solution containing: 120 mM potassium gluconate, 10 mM KCl, 10 mM Na2-phosphocreatine, 10 mM HEPES, 1 mM MgCl2, 1 mM EGTA, 2 mM Na2-ATP, 0.25 mM Na-GTP (pH 7.3 adjusted with KOH; osmolarity, 280–290 mOsmol/l). All recordings were performed in the presence of the GABA A receptor antagonist picrotoxin (100 μM). Excitatory postsynaptic currents (EPSCs) were evoked with electrical pulses (5–20 V, 100–200 μs) delivered at 0.1 Hz using glass microelectrode placed in the […] in CA1 pyramidal neurons voltage-clamped at − 70 mV. All recorded currents were amplified with an a Multiclamp 700B amplifier (Molecular Devices, Sunnyvale, CA), filtered at 3 kHz, digitized at 20 kHz with Digidata 1200 (Molecular Devices), and acquired using the pClamp 10.7 software (Molecular Devices, Sunnyvale, CA). To examine the impact of TPPU on the amplitude of evoked EPSCs, at least 10–20 min of stable baseline recordings were obtained and TPPU was perfused to the brain slices (final DMSO concentration of 0.01%).
For the analysis of the electrophysiology data, the amplitude of evoked EPSCs (eEPSC) was determined by measuring the average current during a 2-ms period at the peak of each eEPSC and subtracted from the average baseline current determined during a 5-ms window taken before the stimulus artifact. All eEPSC amplitudes were normalized to the mean baseline amplitude recorded for at least 10 min before drug application. All the data are represented as the mean ± SE and were not transformed.

Assay [6] shares this test system. Further details: method as in PMID 28526610, PMID 29138698. The conditions noted are these: previous studies; cited from earlier work.
Setting [7] is: mean ± S.E., n = 4, Table 1, read-out: Ki FABP5.

Read-outs that look alike come from different tables or passages of the source. A value given as a limit tells only on which side of the number the result lay.

T1 sequence (Q01469 whole entry): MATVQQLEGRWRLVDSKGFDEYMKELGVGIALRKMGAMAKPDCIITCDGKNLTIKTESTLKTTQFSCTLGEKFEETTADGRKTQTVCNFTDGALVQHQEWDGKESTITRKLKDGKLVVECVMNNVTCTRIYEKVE
FABP3, sequence (P05413 whole entry): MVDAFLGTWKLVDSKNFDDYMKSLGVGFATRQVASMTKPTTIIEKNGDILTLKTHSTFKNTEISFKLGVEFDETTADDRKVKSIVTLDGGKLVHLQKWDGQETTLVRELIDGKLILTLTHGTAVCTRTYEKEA

For the compound `CCCCC[C@H](O)/C=C/[C@H]1[C@H](O)CC(=O)[C@@H]1C/C=C\CCCC(=O)O` [PGE2, prostaglandin E2], the Ki at FABP3 (mean ± S.E., n = 4, Table 1) is > 50 µM; on FABP5 [1] (setting [7]), > 50 µM; at FABP7 [2] (mean ± S.E., n = 4, Table 1) it was > 50 µM. The “Affinity for FABP5” value at FABP5 [3] is on record as “does not display appreciable affinity”. For the same compound, the “Affinity for FABP7” value on FABP7 [4] is “does not display appreciable affinity”.
On to `CCC(=O)N1CCC(NC(=O)Nc2ccc(OC(F)(F)F)cc2)CC1` [TPPU], for which, in assay [5] (TPPU 10 µM), the “CA1 pyramidal neurons showing depression of eEPSC amplitude” value is listed as 41% and the “CA1 pyramidal neurons showing potentiation of eEPSC amplitude” value came to 47%. Moreover, the “Coefficient of variation (CV) during depression of EPSCs” value in assay [5] (TPPU 10 µM vs baseline, n = 5, p = 0.086) is “not accompanied with significant changes”. Moreover, the “Paired pulse ratio (PPR) during depression of EPSCs” value in assay [5] (TPPU 10 µM vs baseline, n = 5, p = 0.108) was “not accompanied with significant changes”. For the same compound, the “Coefficient of variation (CV) during potentiation of eEPSCs” value in assay [5] (TPPU 10 µM vs baseline, n = 7, p = 0.0017) is “significant decrease”. In assay [5] (TPPU 10 µM vs baseline, n = 7, p = 0.042), the “Paired pulse ratio (PPR) during potentiation of eEPSCs” value is “significant decrease”.
As for `CCCCC[C@H]1O[C@H]1C/C=C\C/C=C\C/C=C\CCCC(=O)O` [14,15-EET], the Ki at FABP3 (mean ± S.E., n = 4, Table 1) was 0.65 ± 0.08 µM; at FABP5 [1] (setting [7]), 5.56 ± 0.48 µM; on FABP7 [2] (mean ± S.E., n = 4, Table 1), 3.74 ± 0.12 µM. Further, the “Effect on hippocampal glutamate synapses” value in assay [6] was “potentiates”.
As to `CCCCC/C=C\C[C@H]1O[C@H]1C/C=C\C/C=C\CCCC(=O)O` [11,12-EET], the Ki on FABP3 (mean ± S.E., n = 4, Table 1) worked out at 0.2 ± 0.03 µM; at FABP5 [1] (setting [7]) it was 0.52 ± 0.07 µM; on FABP7 [2] (mean ± S.E., n = 4, Table 1) it was 1.13 ± 0.11 µM. Also, the “Effect on hippocampal glutamate synapses” value in assay [6] is “depresses”.
For the compound `O=C(O)C1[C@H](c2ccccc2)C(C(=O)Oc2cccc3ccccc23)[C@H]1c1ccccc1` (stereo partly shown) [SBFI-26], the inhibitory constant (Ki) at FABP3 (inhibitors, Table 3) came out at 2.7 ± 0.42 µM; on FABP7 [2] (inhibitors, Table 3), 0.45 ± 0.07 µM. The “Effect on TPPU-induced potentiation of eEPSCs” value in assay [5] (inhibitor 10 µM with TPPU 10 µM, hippocampal slices) was “significantly reduced”.
In the case of `CCCCC[C@H](O)/C=C/[C@@H]1[C@@H](C/C=C\CCCC(=O)O)[C@@H](O)C[C@H]1O` [PGF2α], the inhibition constant (Ki) at FABP3 (mean ± S.E., n = 4, Table 1) is > 50 µM; at FABP5 [1] (setting [7]), > 50 µM; at FABP7 [2] (mean ± S.E., n = 4, Table 1) it was > 50 µM.
For the compound `CCCCCC(O)C=CC1C(O)CC(O)C1CC=CCCCC(=O)NCCO` (stereo not drawn) [PGF2α-EA, prostamide F2α], the inhibition constant Ki at FABP3 (mean ± S.E., n = 4, Table 1) is > 50 µM; on FABP5 [1] (setting [7]) it was > 50 µM; at FABP7 [2] (mean ± S.E., n = 4, Table 1), > 50 µM.
As to `CCCCCCCC/C=C\CCCCCCCC(=O)OC[C@H](O)COP(=O)(O)O` [LPA, oleoyl lysophosphatidic acid], the Ki at FABP3 (mean ± S.E., n = 4, Table 1) is 1.37 ± 0.12 µM; at FABP5 [1] (setting [7]), 3.2 ± 0.19 µM; at FABP7 [2] (mean ± S.E., n = 4, Table 1), > 50 µM.
For `CCCCCC(O)C=CC1C(O)CC(=O)C1CC=CCCCC(=O)OCC(O)CO` (stereo not shown) [PGE2-GE, prostaglandin E2 glyceryl ester] the same measures were > 50 µM, > 50 µM and > 50 µM.
For the compound `CCCCCC=CC=C1C(=O)C=CC1CC=CCCCC(=O)O` (stereo not shown) [15d-PGJ2, 15-deoxy-Δ^12,14-Prostaglandin J2], the Ki on FABP3 (mean ± S.E., n = 4, Table 1) stood at 1.22 ± 0.14 µM; at FABP5 [1], 12.3 ± 1.54 µM; on FABP7 [2] (mean ± S.E., n = 4, Table 1), 29.9 ± 5.64 µM.
In the case of `CCCCC/C=C\C/C=C\C/C=C\C[C@H]1O[C@H]1CCCC(=O)O` [5,6-EET], the Ki on FABP3 (mean ± S.E., n = 4, Table 1) came out at 1.44 ± 0.12 µM; on FABP5 [1] (setting [7]), 3.57 ± 0.28 µM; on FABP7 [2] (mean ± S.E., n = 4, Table 1) it was 4.3 ± 0.29 µM.
Consider `CCCCC/C=C\C/C=C\C[C@H]1O[C@H]1C/C=C\CCCC(=O)O` [8,9-EET], for which the Ki at FABP3 (mean ± S.E., n = 4, Table 1) turned out to be 0.17 ± 0.02 µM; on FABP5 [1] (setting [7]) it was 1.87 ± 0.21 µM; on FABP7 [2] (mean ± S.E., n = 4, Table 1), 3.16 ± 0.3 µM.
